Reference: the supplement of paper PMC10307832

How the values were obtained:
Experiment in all cases: relative viability (nuclei count vs DMSO), 5 days (fraction); higher = more cells survive
JZL-184 = compound: C1CN(CCC1C(C2=CC3=C(C=C2)OCO3)(C4=CC5=C(C=C4)OCO5)O)C(=O)OC6=CC=C(C=C6)[N+](=O)[O-] [JZL-184]
In short: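 For viability, nuclei in each treated well were divided by nuclei in vehicle wells and the median across plates was taken. Lung cancer cell lines in 1536-well plates were pinned with five library-drug doses (not always all listed) spaced by √10, cultured 5 days without medium change, and imaged at 4× after Hoechst staining, with plates passing only at control CV below 25% and at least one doubling.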

JZL-184 + Navitoclax = compound: C1CN(CCC1C(C2=CC3=C(C=C2)OCO3)(C4=CC5=C(C=C4)OCO5)O)C(=O)OC6=CC=C(C=C6)[N+](=O)[O-] [JZL-184] + CC1(C)CCC(c2ccc(Cl)cc2)=C(CN2CCN(c3ccc(C(=O)NS(=O)(=O)c4ccc(N[C@H](CCN5CCOCC5)CSc5ccccc5)c(S(=O)(=O)C(F)(F)F)c4)cc3)CC2)C1 [Navitoclax] (partner 0.5 µM)
In short: (§1)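 Relative viability divides the nuclei count in treated wells by that in vehicle wells. Lung cancer cell lines were seeded in 1536-well plates, dosed by pin tool the next day, and fixed and stained after 5 days in one step with final 0.05% Triton X-100, 1% formaldehyde and 1 ug/ml Hoechst. Dosing was a single drug or a fixed anchor-drug dose plus five library-drug doses (not always all listed) in √10 steps, and values are medians of duplicate plates imaged at 4×.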

JZL-184 + Lapatinib = compound: C1CN(CCC1C(C2=CC3=C(C=C2)OCO3)(C4=CC5=C(C=C4)OCO5)O)C(=O)OC6=CC=C(C=C6)[N+](=O)[O-] [JZL-184] + CS(=O)(=O)CCNCc1ccc(-c2ccc3ncnc(Nc4ccc(OCc5cccc(F)c5)c(Cl)c4)c3c2)o1 [Lapatinib] (partner 2 µM)
In short: as §1

JZL-184 + Dasatinib = compound: C1CN(CCC1C(C2=CC3=C(C=C2)OCO3)(C4=CC5=C(C=C4)OCO5)O)C(=O)OC6=CC=C(C=C6)[N+](=O)[O-] [JZL-184] + Cc1nc(Nc2ncc(C(=O)Nc3c(C)cccc3Cl)s2)cc(N2CCN(CCO)CC2)n1 [Dasatinib] (partner 0.075 µM)
In short: as §1

JZL-184 + Vorinostat = compound: C1CN(CCC1C(C2=CC3=C(C=C2)OCO3)(C4=CC5=C(C=C4)OCO5)O)C(=O)OC6=CC=C(C=C6)[N+](=O)[O-] [JZL-184] + O=C(CCCCCCC(=O)Nc1ccccc1)NO [Vorinostat] (partner 1 µM)
In short: as §1

Row | Cell Line | relative viability (JZL-184; 0.04 µM) | relative viability (JZL-184; 0.4 µM) | relative viability (JZL-184; 1.265 µM) | relative viability (JZL-184; 4 µM) | relative viability (JZL-184 + Navitoclax; first compound 0.04 µM) | relative viability (JZL-184 + Navitoclax; first compound 0.4 µM) | relative viability (JZL-184 + Navitoclax; first compound 1.265 µM) | relative viability (JZL-184 + Navitoclax; first compound 4 µM) | relative viability (JZL-184 + Lapatinib; first compound 0.04 µM) | relative viability (JZL-184 + Lapatinib; first compound 0.4 µM) | relative viability (JZL-184 + Lapatinib; first compound 1.265 µM) | relative viability (JZL-184 + Lapatinib; first compound 4 µM) | relative viability (JZL-184 + Dasatinib; first compound 0.04 µM) | relative viability (JZL-184 + Dasatinib; first compound 0.4 µM) | relative viability (JZL-184 + Dasatinib; first compound 1.265 µM) | relative viability (JZL-184 + Dasatinib; first compound 4 µM) | relative viability (JZL-184 + Vorinostat; first compound 0.04 µM) | relative viability (JZL-184 + Vorinostat; first compound 0.4 µM) | relative viability (JZL-184 + Vorinostat; first compound 1.265 µM) | relative viability (JZL-184 + Vorinostat; first compound 4 µM)
1 | NCI-H520 | 0.793 | 0.924 | 1.07 | 0.93 | 1.19 | 1.13 | 1.15 | 1.04 | 0.79 | 0.76 | 0.856 | 0.631 | 0.188 | 0.2 | 0.178 | 0.168 | 0.884 | 0.683 | 0.798 | 0.678
2 | UMC-11 | 1.12 | 0.951 | 1.08 | 0.976 | 0.349 | 0.318 | 0.349 | 0.302 | 1.26 | 0.898 | 1.05 | 0.947 | 0.662 | 0.474 | 0.494 | 0.447 | 0.405 | 0.415 | 0.381 | 0.304
3 | NCI-H596 | 1.21 | 0.875 | 1.01 | 0.932 | 0.936 | 0.993 | 0.93 | 0.791 | 1.12 | 0.948 | 1.04 | 0.992 | 0.739 | 0.437 | 0.658 | 0.566 | 0.701 | 0.63 | 0.501 | 0.556
4 | NCI-H1755 | 1.04 | 0.988 | 0.985 | 0.956 | 1.01 | 0.954 | 1.01 | 0.918 | 1.02 | 1.01 | 1.07 | 0.962 | 0.445 | 0.428 | 0.406 | 0.396 | 0.704 | 0.634 | 0.798 | 0.638
5 | SK-LU-1 | 1.11 | 0.982 | 1.15 | 1.02 | 1.36 | 0.866 | 0.915 | 0.823 | 1.21 | 0.814 | 0.962 | 0.822 | 0.183 | 0.196 | 0.194 | 0.207 | 0.795 | 0.744 | 0.894 | 0.717
6 | NCI-H647 | 1.04 | 0.945 | 1.06 | 0.887 | 1.24 | 1.12 | 1.12 | 1.07 | 1.35 | 0.969 | 1.28 | 1.14 | 0.177 | 0.174 | 0.283 | 0.145 | 0.898 | 0.635 | 0.892 | 0.4
7 | SW 1573 | 1.15 | 0.926 | 1.08 | 1.02 | 0.913 | 0.912 | 1.21 | 1.16 | 1.25 | 1.15 | 1.25 | 1.01 | 0.638 | 0.379 | 0.548 | 0.42 | 0.824 | 0.64 | 0.788 | 0.551
8 | HCC-15 | 1.07 | 1.03 | 1.08 | 0.978 | 0.754 | 0.704 | 0.759 | 0.703 | 0.988 | 0.813 | 0.943 | 0.778 | 0.647 | 0.673 | 0.677 | 0.524 | 0.918 | 0.796 | 0.919 | 0.773
9 | NCI-H2126 | 0.996 | 0.974 | 1.03 | 0.988 | 0.847 | 0.807 | 0.897 | 0.873 | 0.755 | 0.779 | 0.768 | 0.764 | 0.612 | 0.639 | 0.607 | 0.612 | 0.753 | 0.698 | 0.76 | 0.737
10 | NCI-H2085 | 0.719 | 0.989 | 1.07 | 0.98 | 1.1 | 1.18 | 1.13 | 1.08 | – | 0.657 | 0.764 | 0.753 | 0.236 | 0.234 | 0.299 | 0.261 | – | 0.805 | 0.832 | 0.709
11 | BEN | 1.1 | 0.949 | 1.21 | 1.01 | 0.0556 | 0.0635 | 0.0659 | 0.0756 | 0.865 | 0.671 | 0.939 | 0.819 | 0.333 | 0.349 | 0.328 | 0.337 | 0.538 | 0.524 | 0.538 | 0.594
12 | PC-14 | 1.24 | 0.974 | 1.07 | 0.936 | 0.998 | 1 | 0.964 | 0.992 | 0.39 | 0.316 | 0.325 | 0.327 | 0.293 | 0.271 | 0.287 | 0.255 | 0.848 | 0.722 | 0.758 | 0.661
13 | NCI-H2228 | 1.16 | 0.945 | 1.04 | 0.918 | 0.841 | 0.823 | 0.836 | 0.91 | 1.37 | 0.796 | 1.03 | 1.15 | 0.663 | 0.445 | 0.543 | 0.587 | 0.898 | 0.572 | 0.639 | 0.703
14 | COR-L23 | 1.2 | 1.06 | 1.03 | 0.971 | 1.13 | 0.87 | 1.05 | 0.968 | 1.26 | 0.818 | 0.889 | 0.823 | 0.596 | 0.425 | 0.514 | 0.407 | 0.649 | 0.472 | 0.477 | 0.459
15 | NCI-H1915 | 1.09 | 0.956 | 1.1 | 0.976 | 0.819 | 0.749 | 0.794 | 0.722 | 1.15 | 0.973 | 0.998 | 0.935 | 0.318 | 0.298 | 0.364 | 0.281 | 0.481 | 0.493 | 0.48 | 0.537
